Holding throughout (type): cell-based
One assay has as its system BHK-21 cells. The experiment in a line: Anti-fibrosis activity test: inhibition of BHK-21 cell proliferation (CCK-8). The conditions noted are these: Mesocricetus auratus, BHK-21, 48 h, CCK-8, 48 hours after administration. The gist of the method:
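Proliferation inhibition was read as CCK-8 absorbance at 450 nm (2-hour development) relative to untreated blank, with IC50 fitted from the curve. Before that, adhered cells (2×10^4 cells/mL, 24 hours) had 48 hours' treatment at several concentrations, in triplicate, at 37° C/5% CO2; pirfenidone was the reference.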

Assay [1] deals with human lung fibroblasts HFL1. The experiment in a line: Anti-fibrosis activity test: inhibition of proliferation of human lung fibroblasts HFL1 (CCK-8). The conditions noted are these: Homo sapiens, HFL1, 48 h, human lung fibroblasts HFL1, CCK-8, 48 hours. The gist of the method: (§1)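 Cells were seeded at 2×10^4 cells/mL and allowed to adhere for 24 h at 37° C, 5% CO2, then exposed to graded compound concentrations in triplicate for 48 h. CCK-8 was added for 2 h, A450 was read, and IC50 was derived from inhibition rate = (1−Ai/Ao)×100%.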

For assay [2], the system named is human hepatic stellate cells LX-2. Kind of assay: Anti-fibrosis activity test: inhibition of proliferation of human hepatic stellate cells LX-2 (CCK-8). The conditions noted are these: Homo sapiens, 48 h, human hepatic stellate cells LX-2, CCK-8, 48 hours. In a few lines:
as §1

The test system of assay [3] is human fibrosarcoma cells HT-1080. Kind of assay: Anti-fibrosis activity test: inhibition of proliferation of human fibrosarcoma cells HT-1080 (CCK-8). The conditions noted are these: Homo sapiens, HT-1080, 48 h, human fibrosarcoma cells HT-1080, CCK-8, 48 hours. In a few lines:
as §1

Assay [4] has as its system human dermal fibroblasts CCC-ESF-1. The experiment in a line: Anti-fibrosis activity test: inhibition of proliferation of human dermal fibroblasts CCC-ESF-1 (CCK-8). The conditions noted are these: Fibroblast; human dermal fibroblasts CCC-ESF-1, CCK-8, 48 hours. The gist of the method: as §1
Assay [5] has as its system human embryonic lung fibroblast IMR-90. The experiment in a line: Anti-fibrosis activity test: inhibition of proliferation of human embryonic lung fibroblast IMR-90 (CCK-8). The conditions noted are these: human embryonic lung fibroblast IMR-90, CCK-8, 48 hours. In a few lines:
as §1

Assay [6] relates to cardiac fibroblast RAT-iCell-C002. The experiment in a line: Anti-fibrosis activity test: inhibition of proliferation of cardiac fibroblast RAT-iCell-C002 (CCK-8). The conditions noted are these: Cardiac fibroblast, 48 h, cardiac fibroblast RAT-iCell-C002, CCK-8, 48 hours. The gist of the method: as §1
The test system of assay [7] is mouse macrophages (RAW264.7). The experiment in a line: Lipopolysaccharide-induced NO secretion in macrophages (Griess). The conditions noted are these: Mus musculus, RAW264.7, 24 h, RAW264.7, LPS 1 μg/ml, a/b isomers given as first/second symbol, read-out: IC50 (μM), inhibition of lipopolysaccharide-induced NO secretion in macrophages. In a few lines:
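RAW264.7 cells in DMEM with 10% FBS were treated with test compounds at several concentrations, then stimulated with LPS (1 μg/ml) for 24 hours. Nitrite in the supernatant was measured by Griess reaction at 548 nm, and percent inhibition was calculated against blank-medium controls.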
In general terms: Griess reagent forms a coloured azo dye with nitrite.

Consider `O=C1c2c(n(Cc3cccc(Cl)c3)c3c(Cl)cccc3c2=O)-c2cccn21` [Compound 459a, 5-Chloro-4-(3-chlorobenzyl)-9H-pyrrolizino[1,2-b]quinoline-9,10(4H)-dione], for which the IC50 (in general, the concentration at which inhibition is half-maximal) in the assay on BHK-21 cells fell in the range of 0.05 to 5 mM; in assay [1], 0.05 to 5 mM; in assay [2], 0.05 to 5 mM; in assay [3] it was 5 to 20 mM; in assay [4], 0.05 to 5 mM; in assay [5], 0.05 to 5 mM. The IC50 lay in the range of 0.05 to 5 mM in assay [6] and 1 to 10 µM in assay [7].

With `O=C1c2c(nc3c(Cl)cccc3c2OCc2cccc(Cl)c2)-c2cccn21` [Compound 459b, 5-chloro-9-((3-chlorobenzyl)oxy)-10H-pyrrolizino[1,2-b]quinolin-10-one], the IC50 in the assay with BHK-21 cells was in the range of 0.05 to 5 mM; in assay [1], 0.05 to 5 mM; in assay [2], 0.05 to 5 mM; in assay [3] it was 5 to 20 mM; in assay [4], 0.05 to 5 mM; in assay [5], 0.05 to 5 mM. For the same compound, the IC50 was 0.05 to 5 mM in assay [6] and 1 to 10 µM in assay [7].

Turning to `O=C1c2c(n(Cc3ccccc3F)c3c(Cl)cccc3c2=O)-c2cccn21` [Compound 460a, 5-Chloro-4-(2-fluorobenzyl)-9H-pyrrolizino[1,2-b]quinoline-9,10(4H)-dione], the IC50 in the assay on BHK-21 cells is less than 0.05 mM; in assay [1], less than 0.05 mM; in assay [2] it was 0.05 to 5 mM; in assay [3], 0.05 to 5 mM; in assay [4], 0.05 to 5 mM; in assay [5], 0.05 to 5 mM. The IC50 was 0.05 to 5 mM in assay [6] and 0.1 to 1 µM in assay [7].

For the compound `O=C1c2c(nc3c(Cl)cccc3c2OCc2ccccc2F)-c2cccn21` [Compound 460b, 5-chloro-9-((2-fluorobenzyl)oxy)-10H-pyrrolizino[1,2-b]quinolin-10-one], the IC50 (in the assay on BHK-21 cells; in assay [1]; in assay [2]; in assay [3]; in assay [4]; in assay [5]) was 0.05 to 5 mM each time. Further, the IC50 in assay [6] was 0.05 to 5 mM; in assay [7], 10 to 50 µM.

Take `O=C1c2c(n(Cc3ccccc3Cl)c3c(Cl)cccc3c2=O)-c2cccn21` [Compound 461a, 5-Chloro-4-(2-chlorobenzyl)-9H-pyrrolizino[1,2-b]quinoline-9,10(4H)-dione]: the IC50 in the assay on BHK-21 cells is less than 0.05 mM; in assay [1], 0.05 to 5 mM; in assay [2], less than 0.05 mM; in assay [3], 0.05 to 5 mM; in assay [4] it was 0.05 to 5 mM; in assay [5], 0.05 to 5 mM. The IC50 in assay [6] was 0.05 to 5 mM; in assay [7] it was 1 to 10 µM.

Consider `O=C1c2c(nc3c(Cl)cccc3c2OCc2ccccc2Cl)-c2cccn21` [Compound 461b, 5-chloro-9-((2-chlorobenzyl)oxy)-10H-pyrrolizino[1,2-b]quinolin-10-one], for which the IC50 (in the assay on BHK-21 cells; in assay [1]; in assay [2]; in assay [3]; in assay [4]; in assay [5]) was 0.05 to 5 mM in each case. Moreover, the IC50 in assay [6] fell in the range of 0.05 to 5 mM; in assay [7], 1 to 10 µM.

In the case of `N#Cc1cccc2c1c(=O)c1c(n2Cc2cccc(F)c2)-c2cccn2C1=O` [Compound 463a, 4-(3-Fluorobenzyl)-9,10-dioxo-4,10-dihydro-9H-pyrrolizino[1,2-b]quinoline-8-carbonitrile], the IC50 is 0.05 to 5 mM in the assay with BHK-21 cells; 0.05 to 5 mM in assay [1]; 0.05 to 5 mM in assay [2]; 5 to 20 mM in assay [3]; 0.05 to 5 mM in assay [4]; 0.05 to 5 mM in assay [5]. Also, the 50% inhibitory concentration (IC50) in assay [6] lay within 0.05 to 5 mM; in assay [7], 1 to 10 µM.

Consider `N#Cc1cccc2nc3c(c(OCc4cccc(F)c4)c12)C(=O)n1cccc1-3` [Compound 463b, 9-((3-fluorobenzyl)oxy)-10-oxo-10H-pyrrolizino[1,2-b]quinoline-8-carbonitrile], for which the IC50 (in the assay with BHK-21 cells; in assay [1]; in assay [2]; in assay [3]; in assay [4]; in assay [5]) was 0.05 to 5 mM throughout. The results for the IC50 in assay [6] and in assay [7] were 0.05 to 5 mM and 1 to 10 µM, respectively.

In the case of `O=C1c2c(n(Cc3ccc(Cl)cc3)c3cccc(C(F)(F)F)c3c2=O)-c2cccn21` [Compound 465a, 4-(4-Chlorobenzyl)-8-(trifluoromethyl)-9H-pyrrolizino[1,2-b]quinoline-9,10(4H)-dione], the IC50 (in the assay with BHK-21 cells; in assay [1]; in assay [2]; in assay [3]; in assay [4]; in assay [5]) was 0.05 to 5 mM throughout. Also, the results for the IC50 in assay [6] and in assay [7] were 0.05 to 5 mM and 0.1 to 1 µM, respectively.

In the case of `O=C1c2c(nc3cccc(C(F)(F)F)c3c2OCc2ccc(Cl)cc2)-c2cccn21` [Compound 465b, 9-((4-chlorobenzyl)oxy)-8-(trifluoromethyl)-10H-pyrrolizino[1,2-b]quinolin-10-one], the IC50 (in the assay with BHK-21 cells; in assay [1]; in assay [2]; in assay [3]; in assay [4]; in assay [5]) was 0.05 to 5 mM in each case. For the same compound, the IC50 lay within 0.05 to 5 mM in assay [6] and 10 to 50 µM in assay [7].

In the case of `O=C1c2c(n(Cc3cccc(Cl)c3)c3cccc(C(F)(F)F)c3c2=O)-c2cccn21` [Compound 466a, 4-(3-Chlorobenzyl)-8-(trifluoromethyl)-9H-pyrrolizino[1,2-b]quinoline-9,10(4H)-dione], the IC50 was 0.05 to 5 mM with BHK-21 cells; 0.05 to 5 mM in assay [1]; less than 0.05 mM in assay [2]; 0.05 to 5 mM in assay [3]; 0.05 to 5 mM in assay [4]; 0.05 to 5 mM in assay [5]. For the same compound, the IC50 lay within 0.05 to 5 mM in assay [6] and 1 to 10 µM in assay [7].

For `O=C1c2c(nc3cccc(C(F)(F)F)c3c2OCc2cccc(Cl)c2)-c2cccn21` [Compound 466b, 9-((3-chlorobenzyl)oxy)-8-(trifluoromethyl)-10H-pyrrolizino[1,2-b]quinolin-10-one], the 50% inhibitory concentration (IC50) (with BHK-21 cells; in assay [1]; in assay [2]; in assay [3]; in assay [4]; in assay [5]) was 0.05 to 5 mM each time. Also, the values for the IC50 in assay [6] and in assay [7] were 0.05 to 5 mM and 1 to 10 µM, respectively.

As to `O=C1c2c([nH]c3cccc(F)c3c2=O)-c2cccn21` [Compound 467a, 8-Fluoro-9H-pyrrolizino[1,2-b]quinoline-9,10(4H)-dione], the IC50 with BHK-21 cells was less than 0.05 mM; in assay [1] it was 0.05 to 5 mM; in assay [2], 0.05 to 5 mM; in assay [3], 0.05 to 5 mM; in assay [4] it was 0.05 to 5 mM; in assay [5], 0.05 to 5 mM. Also, the IC50 in assay [6] lay within 0.05 to 5 mM; in assay [7], 1 to 10 µM.

With `O=C1c2c(nc3cccc(F)c3c2O)-c2cccn21` [Compound 467b, 8-fluoro-9-hydroxy-10H-pyrrolizino[1,2-b]quinolin-10-one], the IC50 (in the assay on BHK-21 cells; in assay [1]; in assay [2]; in assay [3]; in assay [4]; in assay [5]) was 0.05 to 5 mM each time. Moreover, the IC50 in assay [6] lay within 0.05 to 5 mM; in assay [7], 1 to 10 µM.

For `N#Cc1cccc2c1c(=O)c1c(n2Cc2ccccc2F)-c2cccn2C1=O` [Compound 469a, 4-(2-Fluorobenzyl)-9,10-dioxo-4,10-dihydro-9H-pyrrolizino[1,2-b]quinoline-8-carbonitrile], the 50% inhibitory concentration (IC50) in the assay on BHK-21 cells was less than 0.05 mM; in assay [1] it was 0.05 to 5 mM; in assay [2], 0.05 to 5 mM; in assay [3], 5 to 20 mM; in assay [4] it was 0.05 to 5 mM; in assay [5], 0.05 to 5 mM. For the same compound, the IC50 lay within 0.05 to 5 mM in assay [6] and 0.1 to 1 µM in assay [7].

With `N#Cc1cccc2nc3c(c(OCc4ccccc4F)c12)C(=O)n1cccc1-3` [Compound 469b, 9-((2-fluorobenzyl)oxy)-10-oxo-10H-pyrrolizino[1,2-b]quinoline-8-carbonitrile], the IC50 (in the assay with BHK-21 cells; in assay [1]; in assay [2]; in assay [3]; in assay [4]; in assay [5]) was 0.05 to 5 mM each time. Also, the results for the IC50 in assay [6] and in assay [7] were 0.05 to 5 mM and 10 to 50 µM, respectively.

As to `O=C1c2c([nH]c3cccc(O)c3c2=O)-c2cccn21` [Compound 470a, 8-Hydroxy-9H-pyrrolizino[1,2-b]quinoline-9,10(4H)-dione], the IC50 (with BHK-21 cells; in assay [1]; in assay [2]; in assay [3]; in assay [4]; in assay [5]) was 0.05 to 5 mM each time. The IC50 in assay [6] fell in the range of 0.05 to 5 mM; in assay [7], 0.1 to 1 µM.

For the origin of these results see US11040028B2, “Penicinotam derivative, preparation method and use thereof” (OCEAN UNIVERSITY OF CHINA, priority 2017, dated 2021).
